Data: US20170165274A1, “COMPOSITION” (SHIELD TX (UK) LTD., priority 2014, published 2017)
Like-named read-outs stand apart in the source and are kept apart here.

Legend:
[1] = system: nasal mucosa; assay: Contact with the nasal mucosa (irritation); settings: contact for 10 minute periods
[2] = system: grazed skin; assay: Short term exposure on grazed skin in two volunteers (irritation); settings: 10^−4 M, short term (5 mins) exposure
[3] = Stability of iron hydroxypyrones in liquid as a function of pH; format: physicochemical; settings: acid pH
Description: There is another advantage of a liquid formulation of a ferric tri (hydroxypyrone) in that there is no need to have an acidified preparation for either efficacy or stability. […] This is a significant difference between ferric pyrones in solution and ferrous salts used in medicine.
Unlike the ferrous products a maximum stability of the liquid ferric pyrones and ferrous products containing maltol is achieved in the pH range 5.5-8. With this knowledge the formulations developed require ingredients suited to this constraint and also standardisation of colour and taste for patient acceptability. At higher concentrations of active a suspension formulation may be preferred. Furthermore the excipients must not reduce the excellent bio-availability of iron from iron pyrone formulations.

[4] = system: grazed skin; settings: human, in vivo
[5] = system: nasal mucosa; settings: in vivo

Stability behaviour in liquid [3] | Compound | Irritancy to nasal mucosa [1] | Irritation of grazed skin [2] | Irritation of grazed skin [4] | Irritancy to nasal mucosa [5]
 | O=S(=O)([O-])[O-].[Fe+2] [FeS04, iron sulphate] | neither iron tri-maltol or iron sulphate in contact with the nasal mucosa for 10 minute periods proved to be irritant | did not induce irritation |  | 
disproportionates at acid pH values | Cc1occc(=O)c1[O-].Cc1occc(=O)c1[O-].Cc1occc(=O)c1[O-].[Fe+3] [Fe[Maltol]3, ferric trimaltol] |  |  | did not induce irritation | neither iron tri-maltol or iron sulphate in contact with the nasal mucosa for 10 minute periods proved to be irritant
